Laboratory results published in US20230322865A1 (priority 2020, published 2023).
Peptide text beside a SMILES is read from it. * marks the point of attachment. Propyl(2R-PamO,3-PamO) = CCCCCCCCCCCCCCCC(=O)OC[C@H](C*)OC(=O)CCCCCCCCCCCCCCC; Palmitoyl = CCCCCCCCCCCCCCCC(=O)*

Assays:
[1] = tested on: peptide-specific T-cells; experiment: Self-vaccination of a healthy volunteer with SARS-CoV-2-derived peptides, XS15 and Montanide; type: in vivo, human
Description: Development of antibody-dependent enhancement (ADE) antibodies has been identified as potential risk for infected patients after vaccination approaches; see Graham B S. Rapid COVID-19 vaccine development. Science. 2020. In contrast to other classical vaccines aiming to induce an antibody-response to prevent viral infections the CoVac-1 vaccine is designed to induce SARS-CoV-2 specific T-cells. […] Therefore, there is compared to other vaccine approaches only minimal risk of induction of ADE antibodies by the CoVac-1 vaccine.
A more current report of self-vaccination of the same individual includes the administration of SARS-CoV-2-derived peptides performed in March 2020. Here, the self-experimenting healthy volunteer used eight SARS-CoV-2-derived peptides: five predicted to bind to HLA class I molecules (CD8 peptides) and three predicted to bind to HLA-DR molecules (CD4 peptides, including two peptides from the CoVac-1 vaccine). […] About 3 weeks after a single vaccination, using a vaccine containing the mentioned synthetic peptides, Montanide and containing 50 μg XS15, strong vaccine-induced CD4^+ T-cell responses against all […] HLA-DR peptides and against the recall CMV epitope could be detected. No T-cell responses against the five predicted SARS-CoV-2 HLA class I peptides could be detected by ex vivo Interferon-γ ELISpot assay. […]

[2] = XS15 emulsified in Montanide ISA 51 VG
[3] = cited from earlier work
[4] = tested on: peptide vaccine-specific T-cells; type: in vivo, human; details: after one injection, preliminary
[5] = tested on: T-cells of donors never exposed to SARS-CoV-2; type: cell-based, human; details: IFN-γ ELISPOT, unexposed donors
[6] = tested on: T-cells in PBMC of patients recovered from SARS-CoV-2 infection; type: cell-based, human

| Compound | antibody induction against vaccine peptide [1] | Persistence of induced immune responses [2] | Persistence of vaccinated peptides in granuloma on vaccination site [2] | Granuloma volume at injection site (ultrasound) ([3]; 80 μg XS15, days 17 and 41) | Ex vivo T-cell responses in peripheral blood detectable ([3]; single vaccination) | Induction of T-cell responses against vaccine peptides, % of healthy volunteer (HV) and patients [4] [%] | PRE cohort frequency [%] [5] [%] | PRE cohort pos/tested [5] | SARS cohort frequency [%] [6] [%] | SARS cohort pos/tested [6] |
| --- | --- | --- | --- | --- | --- | --- | --- | --- | --- | --- |
| CC(C)C[C@H](NC(=O)[C@@H](NC(=O)[C@H](CO)NC(=O)[C@H](Cc1ccc(O)cc1)NC(=O)[C@H](CC(=O)O)NC(=O)[C@H](C)NC(=O)[C@@H](N)C(C)C)C(C)C)C(=O)N[C@@H](Cc1ccc(O)cc1)C(=O)N[C@@H](CC(N)=O)C(=O)N[C@@H](CO)C(=O)N[C@@H](C)C(=O)N[C@@H](CO)C(=O)N[C@@H](Cc1ccccc1)C(=O)N[C@@H](CO)C(=O)N[C@H](C(=O)O)[C@@H](C)O [SEQ ID NO: 6] | no antibody induction was observed |  |  |  |  |  |  |  |  |  |
| CCCCCCCCCCCCCCCC(=O)N[C@@H](CSC[C@@H](COC(=O)CCCCCCCCCCCCCCC)OC(=O)CCCCCCCCCCCCCCC)C(=O)NCC(=O)N[C@@H](CC(=O)O)C(=O)N1CCC[C@H]1C(=O)N[C@@H](CCCCN)C(=O)N[C@@H](Cc1c[nH]cn1)C(=O)N1CCC[C@H]1C(=O)N[C@@H](CCCCN)C(=O)N[C@@H](CO)C(=O)N[C@@H](Cc1ccccc1)C(=O)O [XS15] (Palmitoyl-C(Propyl(2R-PamO,3-PamO))GDPKHPKSF-OH; C-terminus assumed) |  | more than 1.5 years | at least 7 weeks | about 8 ml | more than one year | 100 |  |  |  |  |
| ASAFFGMSRIGMEVT (SARS-CoV-2) [SEQ ID NO: 5, SARS-CoV-2 nucleocapsid-derived HLA-DR peptide] |  |  |  |  |  |  | 6 | 1/18 | 52 | 12/23 |
| ASWFTALTQHGKEDL (SARS-CoV-2) [SEQ ID NO: 3, SARS-CoV-2 nucleocapsid-derived HLA-DR peptide] |  |  |  |  |  |  | 6 | 1/18 | 59 | 13/22 |
| FYVYSRVKNLNSSRV (SARS-CoV-2) [SEQ ID NO: 9, SARS-CoV-2 envelope protein-derived HLA-DR peptide] |  |  |  |  |  |  | 11 | 2/19 | 50 | 11/22 |
| ITRFQTLLALHRSYL [SEQ ID NO: 7] |  |  |  |  |  |  | 5 | 1/20 | 55 | 12/22 |
| KDGIIWVATEGALNT (SARS-CoV-2) [SEQ ID NO: 1, SARS-CoV-2 nucleocapsid-derived HLA-DR peptide] |  |  |  |  |  |  | 44 | 8/18 | 91 | 20/22 |
| LLLLDRLNQLESKMS (SARS-CoV-2) [SEQ ID NO: 4, SARS-CoV-2 nucleocapsid-derived HLA-DR peptide] |  |  |  |  |  |  | 6 | 1/17 | 64 | 14/22 |
| RWYFYYLGTGPEAGL (SARS-CoV-2) [SEQ ID NO: 2, SARS-CoV-2 nucleocapsid-derived HLA-DR peptide] |  |  |  |  |  |  | 6 | 1/18 | 73 | 16/22 |
| SKWYIRVGARKSAPL [SEQ ID NO: 10] |  |  |  |  |  |  | 25 | 4/16 | 68 | 15/22 |
